Reference: patent publication US6476062B2, “Chemokine receptor antagonists” (Schering Corporation, priority 2000, dated 2002)

Target: T1, human CCR5 chemokine receptor (Homo sapiens, UniProt P51681)
T1 construct: expressed in transfected cells; host or cells: NIH 3T3 cells (mouse fibroblasts) expressing human CCR5; membranes prepared from them
Experiment: CCR5 membrane binding assay (inhibition of 125I-RANTES binding)
Conditions: membranes from NIH 3T3 cells expressing human CCR5; 0.05 nM 125I Rantes; one hour; replicates of four; read-out: IC50, 50 percent inhibition of total membrane binding of 125I Rantes
Procedure: A high throughput screen utilizing a CCR5 membrane binding assay identifies inhibitors of RANTES binding. This assay utilizes membranes prepared from NIH 3T3 cells expressing the human CCR5 chemokine receptor which have the ability to bind to RANTES, a natural ligand for the receptor. Using a 96-well plate format, membrane preparations are incubated with ^125I-RANTES in the presence or absence of compound for one hour. Compounds are serially diluted over a wide range of 0.001 ug/ml to 1 ug/ml and tested in triplicates. Reaction cocktails are harvested through glass fiber filters, and washed thoroughly. Total counts for replicates are averaged and data reported as the concentration required to inhibit 50 percent of total ^125I-RANTES binding. Compounds with potent activity in the membrane binding assay are further characterized in secondary cell-based HIV-1 entry and replication assays.
The activity of the compound of formula II was evaluated in the CCR5 membrane binding assay. The assay utilizes membranes prepared from NIH 3T3 cells which express human CCR5 chemokine receptor. RANTES (Regulated upon Activation, Normal T cell Expressed and Secreted) is a natural ligand for the CCR5. […] Total counts for replicates are averaged and 50 percent inhibition of total membrane binding of ^125I Rantes is determined.

T1 sequence (P51681 whole entry): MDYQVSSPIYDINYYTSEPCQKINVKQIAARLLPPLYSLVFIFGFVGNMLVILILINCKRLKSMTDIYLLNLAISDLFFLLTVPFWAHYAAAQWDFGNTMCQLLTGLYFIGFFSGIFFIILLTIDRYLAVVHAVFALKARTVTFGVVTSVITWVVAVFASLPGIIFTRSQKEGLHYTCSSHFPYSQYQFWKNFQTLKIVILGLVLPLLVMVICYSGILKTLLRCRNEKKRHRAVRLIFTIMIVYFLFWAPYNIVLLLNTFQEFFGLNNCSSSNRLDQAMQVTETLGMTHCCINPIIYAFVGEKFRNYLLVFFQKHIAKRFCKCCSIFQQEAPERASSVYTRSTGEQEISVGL

SMILES: C/C=C(\C)[C@@H]1C=C[C@@H]2C[C@H](C)C[C@H](C)[C@H]2[C@@H]1/C(O)=C1/C(=O)N[C@H](C[C@@](C)(O)C(=O)O)C1=O [Compound II]
- IC50: 78.6 nM
